Reference: patent publication US7994365B2, “Basic acetophenones as inhibitors of NO-synthases” (Christian-Albrechts-Universitaet Zu Kiel, priority 2006, dated 2011)
Where a name gives a salt, the structure may show the parent alone.

Molecular target: T1, bNOS (Homo sapiens, UniProt P29475)
T1 construct: purchased Axxora GmbH
Experiment: Griess assay: NO-synthase converts L-arginine to L-citrullin and NO, activity measured by nitrite formation
Assay type: biochemical
Details: maximum inhibition reached; recombinant human isoenzyme, 30 min at 37° C., controls without inhibitor = 100%
Protocol: Although the compound is known from the literature Niwa, H., 1957, Tohoku Yakka Daigaku, 4, 69-78), as yet no NOS-inhibiting action has been described.
In both FIGS. 1 and 2 the bNOS activity is measured by means of nitrite formation. Nitrite is the end product of nitrogen monoxide in oxygen-containing, aqueous solution. Control incubations with all the cofactors, but without inhibitor addition, were 100% established. These are mean values +/− standard deviation of three incubations, in each case measured twice.
The incubations of the synthesized substances with the NO-synthases were carried out as follows: […]
Following preparation, the batches were incubated for 20 min (iNOS and eNOS) or 30 min (bNOS) in the shaking water bath at 37° C. […] After incubating for […] at room temperature, the solutions were measured at a wavelength of 543 nm and the indicated non-enzyme-containing sample was used as the blank reading. […] The nitrite can be quantitatively determined by reaction with sulphanilamide and naphthyl ethylene diamine in an acid medium. This leads to an azo dye, which can be measured spectrophotometrically. […] The relative nitrite formations were determined for the control batches containing no inhibitors. […]

T1 sequence (P29475 whole entry): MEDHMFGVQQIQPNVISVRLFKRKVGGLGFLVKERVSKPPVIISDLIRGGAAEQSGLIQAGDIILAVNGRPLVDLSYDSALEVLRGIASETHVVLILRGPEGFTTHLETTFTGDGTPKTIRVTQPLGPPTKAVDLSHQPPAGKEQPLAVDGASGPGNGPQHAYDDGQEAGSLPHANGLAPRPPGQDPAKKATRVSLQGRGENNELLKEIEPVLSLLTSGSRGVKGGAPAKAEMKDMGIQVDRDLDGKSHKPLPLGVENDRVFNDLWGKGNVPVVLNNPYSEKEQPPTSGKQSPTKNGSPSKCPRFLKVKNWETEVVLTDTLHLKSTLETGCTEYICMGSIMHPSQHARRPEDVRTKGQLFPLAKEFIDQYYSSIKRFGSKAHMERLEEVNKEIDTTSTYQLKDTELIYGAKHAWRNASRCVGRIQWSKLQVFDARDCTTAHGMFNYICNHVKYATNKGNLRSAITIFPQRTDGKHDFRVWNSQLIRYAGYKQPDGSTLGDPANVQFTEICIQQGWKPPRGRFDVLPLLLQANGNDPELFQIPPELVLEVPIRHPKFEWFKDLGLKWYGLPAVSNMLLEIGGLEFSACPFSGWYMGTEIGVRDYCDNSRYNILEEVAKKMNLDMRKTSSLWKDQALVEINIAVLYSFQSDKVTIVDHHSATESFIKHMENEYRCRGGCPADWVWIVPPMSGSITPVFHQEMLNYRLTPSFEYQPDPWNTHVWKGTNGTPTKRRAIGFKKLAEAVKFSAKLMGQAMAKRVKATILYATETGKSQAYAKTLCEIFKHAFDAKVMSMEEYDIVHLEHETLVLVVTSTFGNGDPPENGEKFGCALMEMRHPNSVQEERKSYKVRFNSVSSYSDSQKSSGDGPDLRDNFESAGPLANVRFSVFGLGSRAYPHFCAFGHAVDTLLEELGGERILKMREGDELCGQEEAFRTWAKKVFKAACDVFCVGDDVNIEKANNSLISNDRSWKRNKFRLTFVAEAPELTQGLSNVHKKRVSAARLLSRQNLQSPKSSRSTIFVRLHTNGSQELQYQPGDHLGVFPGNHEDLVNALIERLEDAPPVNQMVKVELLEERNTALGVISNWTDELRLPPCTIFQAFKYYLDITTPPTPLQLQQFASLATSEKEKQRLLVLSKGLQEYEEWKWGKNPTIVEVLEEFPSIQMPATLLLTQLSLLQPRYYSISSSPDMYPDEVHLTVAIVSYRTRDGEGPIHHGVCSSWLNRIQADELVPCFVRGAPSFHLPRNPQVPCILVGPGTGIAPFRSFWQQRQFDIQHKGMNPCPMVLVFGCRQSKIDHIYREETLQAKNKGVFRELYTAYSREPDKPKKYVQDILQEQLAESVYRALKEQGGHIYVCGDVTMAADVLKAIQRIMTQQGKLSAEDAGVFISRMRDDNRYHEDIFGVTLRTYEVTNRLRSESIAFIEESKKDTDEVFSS

| concentration-dependent inhibition of bNOS | SMILES |
| --- | --- |
| up to 88% | CN(C)CCC(=O)c1ccc(-c2ccc(Br)cc2)cc1 [4′-(4-bromophenyl)-3-dimethylaminopropiophenone hydrochloride] |
| up to 99% | CN(C)CCCC(=O)c1ccc(-c2ccc(Br)cc2)cc1 [4′-(4-bromophenyl)-4-dimethylaminobutyrophenone hydrochloride] |
